Laboratory results as given in patent US12077503B2, “Substituted cyclic amides and their use as herbicides” (FMC CORPORATION, priority 2015, dated 2024).

Experiments:
Format in all cases: in vivo
Kochia (Kochia scoparia) [1] = assay: Test A preemergence; settings: Preemergence; for Plant response rating, Kochia: 125 g ai/ha, visual injury after approximately 10 d, 0 to 100 scale where 0 is no effect and 100 is complete control; for Kochia plant response rating (0 to 100 scale, 0 is no effect, 100 is complete control): 500 g ai/ha, visual injury approx. 10 d
Excerpt: (§1) Seeds of plant species selected from barnyardgrass (Echinochloa crus-galli), Kochia (Kochia scoparia), ragweed (common ragweed, Ambrosia elatior), ryegrass, Italian (Italian ryegrass, Lolium multiflorum), crabgrass, large (Digitaria sanguinalis), giant foxtail (Setaria faberii), green foxtail (Setaria viridis), morningglory (Ipomoea spp.), pigweed (Amaranthus retroflexus), velvetleaf (Abutilon theophrasti), wheat (Triticum aestivum), and corn (Zea mays) were planted into a blend of loam soil and sand and treated preemergence with a directed soil spray using test chemicals formulated in anon-phytotoxic solvent mixture which included a surfactant.
(§2) At the same time, plants selected from these crop and weed species and also blackgrass (Alopecurus myosuroides), and Galium (catchweed bedstraw, Galium aparine) were planted in pots containing the same blend of loam soil and sand and treated with postemergence applications of test chemicals formulated in the same manner. Plants ranged in height from 2 to 10 cm and were in the one- to two-leaf stage for the postemergence treatment. Treated plants and untreated controls were maintained in a greenhouse for approximately 10 d, after which time all treated plants were compared to untreated controls and visually evaluated for injury. Plant response ratings, summarized in Table A, are based on a 0 to 100 scale where 0 is no effect and 100 is complete control. A dash (-) response means no test result.

[2] = system: barnyardgrass (Echinochloa crus-galli); assay: Test A preemergence; settings: Preemergence; for Plant response rating, Barnyardgrass: 125 g ai/ha, visual injury after approximately 10 d, 0 to 100 scale where 0 is no effect and 100 is complete control; for Barnyardgrass plant response rating (0 to 100 scale, 0 is no effect, 100 is complete control): 500 g ai/ha, visual injury approx. 10 d
Excerpt: as §1, §2

[3] = system: giant foxtail (Setaria faberii); assay: Test A preemergence; settings: Preemergence; for Plant response rating, Foxtail, Giant: 125 g ai/ha, visual injury after approximately 10 d, 0 to 100 scale where 0 is no effect and 100 is complete control; for Foxtail, Giant plant response rating (0 to 100 scale, 0 is no effect, 100 is complete control): 500 g ai/ha, visual injury approx. 10 d
Excerpt: as §1, §2

[4] = system: pigweed (Amaranthus retroflexus); assay: Test A preemergence; settings: Preemergence; for Plant response rating, Pigweed: 125 g ai/ha, visual injury after approximately 10 d, 0 to 100 scale where 0 is no effect and 100 is complete control; for Pigweed plant response rating (0 to 100 scale, 0 is no effect, 100 is complete control): 500 g ai/ha, visual injury approx. 10 d
Excerpt: as §1, §2

[5] = system: ragweed (common ragweed, Ambrosia elatior); assay: Test A preemergence; settings: Preemergence; for Plant response rating, Ragweed: 125 g ai/ha, visual injury after approximately 10 d, 0 to 100 scale where 0 is no effect and 100 is complete control; for Ragweed plant response rating (0 to 100 scale, 0 is no effect, 100 is complete control): 500 g ai/ha, visual injury approx. 10 d
Excerpt: as §1, §2

[6] = system: ryegrass, Italian (Italian ryegrass, Lolium multiflorum); assay: Test A preemergence; settings: Preemergence; for Plant response rating, Ryegrass, Italian: 125 g ai/ha, visual injury after approximately 10 d, 0 to 100 scale where 0 is no effect and 100 is complete control; for Ryegrass, Italian plant response rating (0 to 100 scale, 0 is no effect, 100 is complete control): 500 g ai/ha, visual injury approx. 10 d
Excerpt: as §1, §2

[7] = system: Galium (catchweed bedstraw, Galium aparine); assay: Test A postemergence
Excerpt: as §1, §2

Kochia (Kochia scoparia) [8] = assay: Test A postemergence
Excerpt: as §1, §2

[9] = system: barnyardgrass (Echinochloa crus-galli); assay: Test A postemergence
Excerpt: as §1, §2

[10] = system: blackgrass (Alopecurus myosuroides); assay: Test A postemergence
Excerpt: as §1, §2

corn (Zea mays) = assay: Test A postemergence
Excerpt: as §1, §2

[11] = system: giant foxtail (Setaria faberii); assay: Test A postemergence
Excerpt: as §1, §2

[12] = system: pigweed (Amaranthus retroflexus); assay: Test A postemergence
Excerpt: as §1, §2

[13] = system: ragweed (common ragweed, Ambrosia elatior); assay: Test A postemergence
Excerpt: as §1, §2

[14] = system: ryegrass, Italian (Italian ryegrass, Lolium multiflorum); assay: Test A postemergence
Excerpt: as §1, §2

[15] = system: wheat (Triticum aestivum); assay: Test A postemergence
Excerpt: as §1, §2

[16] = 125 g ai/ha, postemergence, visual rating after approx. 10 d, 0 to 100 scale (0 no effect, 100 complete control)
[17] = Postemergence, 500 g ai/ha, 0 to 100 scale where 0 is no effect and 100 is complete control
[18] = 125 g ai/ha, postemergence, visual injury rating on 0 to 100 scale (0 no effect, 100 complete control), approx. 10 d
[19] = 1000 g ai/ha, 0 is no effect, 100 is complete control
[20] = 1000 g ai/ha, postemergence, 0 to 100 scale, 0 no effect, 100 complete control

| Structure (SMILES) | Plant response rating, Kochia (Kochia (Kochia scoparia) [1]) | Kochia plant response rating (0 to 100 scale, 0 is no effect, 100 is complete control) (Kochia (Kochia scoparia) [1]) | Plant response rating, Barnyardgrass [2] | Barnyardgrass plant response rating (0 to 100 scale, 0 is no effect, 100 is complete control) [2] | Plant response rating, Foxtail, Giant [3] | Foxtail, Giant plant response rating (0 to 100 scale, 0 is no effect, 100 is complete control) [3] | Plant response rating, Pigweed [4] | Pigweed plant response rating (0 to 100 scale, 0 is no effect, 100 is complete control) [4] | Plant response rating, Ragweed [5] | Ragweed plant response rating (0 to 100 scale, 0 is no effect, 100 is complete control) [5] | Plant response rating, Ryegrass, Italian [6] | Ryegrass, Italian plant response rating (0 to 100 scale, 0 is no effect, 100 is complete control) [6] | Plant response rating, Galium [7, 16] | Plant response rating, Galium [7, 17] | Plant response rating, Kochia (Kochia (Kochia scoparia) [8]; [16]) | Plant response rating, Kochia (Kochia (Kochia scoparia) [8]; [17]) | Plant response rating, Barnyardgrass [9, 17] | Plant response rating, Blackgrass [10, 17] | Plant response rating, Corn (corn (Zea mays); [16]) | Plant response rating, Corn (corn (Zea mays); [17]) | other results |
| --- | --- | --- | --- | --- | --- | --- | --- | --- | --- | --- | --- | --- | --- | --- | --- | --- | --- | --- | --- | --- | --- |
| O=C(Nc1cccc(F)c1F)C1C(=O)N(CC=CBr)CC1c1cccc(C(F)(F)F)c1 (stereo not shown) [Compound 527] | 0 | 0 | 0 | 20 | 80 | 80 | 0 | 0 | 0 | 0 | 0 | 0 | 0 | 0 | 0 | 0 | 20 | 0 | 0 | 0 | Barnyardgrass plant response rating [9, 18]: 0; Blackgrass plant response rating [10, 18]: 0; Plant response rating, Foxtail, Giant [11, 16]: 0; Plant response rating, Foxtail, Giant [11, 17]: 20; Plant response rating, Pigweed [12, 16]: 0; Plant response rating, Pigweed [12, 17]: 0; Plant response rating, Ragweed [13, 16]: 0; Plant response rating, Ragweed [13, 17]: 0; Plant response rating, Ryegrass, Italian [14, 16]: 0; Plant response rating, Ryegrass, Italian [14, 17]: 0; Plant response rating, Wheat [15, 16]: 0; Plant response rating, Wheat [15, 17]: 0 |
| O=C1NCC(c2cccc(C(F)(F)F)c2)C1C(=O)Nc1ccccc1O (stereo not shown) [Compound 557] | 0 | 0 | 0 | 0 | 0 | 0 | 0 | 0 | 0 | 0 | 0 | 0 | 0 | 0 | 0 | 0 | 0 | 0 | 0 | 0 | Plant response rating, Barnyardgrass [9, 16]: 0; Plant response rating, Blackgrass [10, 16]: 0; Plant response rating, Foxtail, Giant [11, 16]: 0; Plant response rating, Foxtail, Giant [11, 17]: 0; Plant response rating, Pigweed [12, 16]: 0; Plant response rating, Pigweed [12, 17]: 0; Plant response rating, Ragweed [13, 16]: 0; Plant response rating, Ragweed [13, 17]: 0; Plant response rating, Ryegrass, Italian [14, 16]: 0; Plant response rating, Ryegrass, Italian [14, 17]: 0; Plant response rating, Wheat [15, 16]: 0; Plant response rating, Wheat [15, 17]: 0 |
| CN1CC(c2ccc(Br)cc2)C(C(=O)Nc2ccccc2S(C)(=O)=O)C1=O (stereo not shown) [Compound 565] | 70 | 90 | 80 | 90 | 90 | 90 | 70 | 80 | 50 | 50 | 0 | 40 | 60 | 60 | 20 | 60 | 90 | 60 | 0 | 20 | Plant response rating, Barnyardgrass [9, 16]: 80; Plant response rating, Blackgrass [10, 16]: 40; Plant response rating, Foxtail, Giant [11, 16]: 80; Plant response rating, Foxtail, Giant [11, 17]: 90; Plant response rating, Pigweed [12, 16]: 20; Plant response rating, Pigweed [12, 17]: 60; Plant response rating, Ragweed [13, 16]: 0; Plant response rating, Ragweed [13, 17]: 50; Plant response rating, Ryegrass, Italian [14, 16]: 20; Plant response rating, Ryegrass, Italian [14, 17]: 30; Plant response rating, Wheat [15, 16]: 0; Plant response rating, Wheat [15, 17]: 40 |
| O=C(Nc1cccc(F)c1F)C1C(=O)N(CC=CCl)CC1c1cc(F)cc(F)c1 (stereo not shown) [Compound 512] |  |  |  |  |  |  |  |  |  |  |  |  |  |  |  |  |  |  |  |  | Kochia plant response rating (0 to 100 scale) (Kochia (Kochia scoparia) [1]; [19]): 0; Barnyardgrass plant response rating (0 to 100 scale) [2, 19]: 80; Foxtail, Giant plant response rating (0 to 100 scale) [3, 19]: 90; Pigweed plant response rating (0 to 100 scale) [4, 19]: 0; Ragweed plant response rating (0 to 100 scale) [5, 19]: 0; Ryegrass, Italian plant response rating (0 to 100 scale) [6, 19]: 0; Plant response rating, Galium [7, 20]: 0; Plant response rating, Kochia (Kochia (Kochia scoparia) [8]; [20]): 0; Plant response rating, Barnyardgrass [9, 20]: 80; Plant response rating, Blackgrass [10, 20]: 0; Plant response rating, Corn (corn (Zea mays); [20]): 0; Plant response rating, Foxtail, Giant [11, 20]: 90; Plant response rating, Pigweed [12, 20]: 0; Plant response rating, Ragweed [13, 20]: 0; Plant response rating, Ryegrass, Italian [14, 20]: 0; Plant response rating, Wheat [15, 20]: 0 |
